Earlier results on one compound are cited in patent publication US20250009664A1, “DOSAGE FORM FOR INTRA-[…] INJECTION […] USE IN THE TREATMENT OF CRYSTAL-AND NON-CRYSTAL […] IN[…]” (priority 2021, published 2025).

For this data set the following is noted: literature.

For the compound `COc1cc2c(c(OC)c1OC)-c1ccc(OC)c(=O)cc1[C@@H](NC(C)=O)CC2` [colchicine, N-[(7S)-1,2,3,10-tetramethoxy-9-oxo-6,7-dihydro-5H-benzo[a]heptalen-7-yl]acetamide], the lethal dose is given as 0.8 mg/kg and the toxicity limit was 0.1 mg/kg.
